Experimental data taken from US4599352A, “Antineoplastic platinum (IV) complexes and compositions” (priority 1984, dated 1986).

Experiments:
[1] = system: IP L1210/Cisplatin; assay: Activity against IP-implanted L1210/Cisplatin leukemia resistant to cisplatin, 30 day test (Table 3); format: in vivo, Female CD2Fl mice
Experimental: (§1) Biological properties of the compounds of the present invention were determined following the protocol described in Cancer Chemotherapy Reports, Vol. 3, No. 3, 1972 which report is incorporated herein by reference.
(§2) Other known mechanisms of resistance for other classes of agents, such as gene amplification or target enzyme change or amplication, also need to be explored. The experiments summarized in Table 3 were conducted at the same time against both sublines using the same drug preparations. […] These experiments were repeated in a second laboratory as documented in Table 4. However, in these experiments the animals were held for 60 rather than 30 days to evaluate whether or not long-term survivors are produced after drug treatment in a more challenging setting.
This experiment (A8-00005 3LE31) was conducted at the Southern Research Institute, Birmingham, Ala. under the supervision of Dr. Daniel Griswold. The protocols were the same as those published previously (Geran et al., Cancer Chemotherapy Reports 3: No. 2, 1972 [Attachment 11]). 10^5 cells were implanted intraperitoneally in CD2Fl male mice on Day 0. Drug treatments were given intraperitoneally as single injections at the doses indicated on Days 1, 5 and 9 after tumor implantation. The diluent was saline except for NSC-271674 where 5% sodium bicarbonate was used. All drugs were prepared fresh on the day of injection, and all were administered in solution. Median survival times for both control and drug-treated mice were determined and expressed as a percentage (% T/C). Body weights were determined on Day 5 and expressed as a weight difference (body weight of the drug-treated animals minus that of the control animals in grams) (T-C). The diluent control animals lived a median of 8.4 days and gained 1.9 grams by Day 5 in this experiment. All animals, including Day 30 survivors, were used in the calculation of median survival times. The log10 change in tumor burden refers to the net log change in viable tumor cell population at the end of therapy (Rx) as compared to the start of therapy; e.g., a […] means that there was a […] and a 3 log change means there was a 1000-fold increase in tumor burden at the end of therapy. The tumor burden at the start of therapy was about 6.1×10^5 cells in this experiment. […]

[2] = system: IP L1210; assay: Activity against IP-implanted L1210 leukemia sensitive to cisplatin, 30 day test (Table 3); format: in vivo, Female CD2Fl mice
Experimental: as §1, §2
This experiment (A8-00005 3LE31) was conducted at the Southern Research Institute, Birmingham, Ala. under the supervision of Dr. Daniel Griswold. The protocols were the same as those published previously (Geran et al., Cancer Chemotherapy Reports 3: No. 2, 1972 [Attachment 11]). 10^5 cells were implanted intraperitoneally in CD2Fl male mice on Day 0. Drug treatments were given intraperitoneally as single injections at the doses indicated on Days 1, 5 and 9 after tumor implantation. The diluent was saline except for NSC-271674 where 5% sodium bicarbonate was used. All drugs were prepared fresh on the day of injection, and all were administered in solution. Median survival times for both control and drug-treated mice were determined and expressed as a percentage (% T/C). Body weights were determined on Day 5 and expressed as a weight difference (body weight of the drug-treated animals minus that of the control animals in grams) (T-C). The diluent control animals lived a median of 8.4 days and gained 1.9 grams by Day 5 in this experiment. All animals, including Day 30 survivors, were used in the calculation of median survival times. The log10 change in tumor burden refers to the net log change in viable tumor cell population at the end of therapy (Rx) as compared to the start of therapy; e.g., a […] means that there was a […] and a 3 log change means there was a 1000-fold increase in tumor burden at the end of therapy. The tumor burden at the start of therapy was about 6.1×10^5 cells in this experiment.
These experiments (A8-00008 3LE31 and A8-00001 3DP31) were conducted concurrently at the Southern Research Institute, Birmingham, Ala. under the supervision of Dr. Daniel Griswold. See Table 4 for experimental details. The diluent control animals bearing L1210 leukemia lived a median of 8.6 days and gained 1.3 grams by Day 5. […] Female CD2Fl mice were used for these experiments.

[Cl][Pt-2]1([Cl])([Cl])([Cl])[NH2+][C@H]2CCCC[C@@H]2[NH2+]1 [trans (d), (1S, 2S)-Tetrachloro-trans-1,2-cyclohexanediamine platinum (IV)]
30 Day Survivors/Total ([1]; 1 mg/kg/dose): 0/6 | Approx. Log10 Change in Tumor Burden at End of RX ([1]; 1 mg/kg/dose): ~3.1 log10 | Median % T/C ([1]; 1 mg/kg/dose): 101% | 30 Day Survivors/Total ([1]; 2 mg/kg/dose): 0/6 | Approx. Log10 Change in Tumor Burden at End of RX ([1]; 2 mg/kg/dose): ~2.8 log10 | Median % T/C ([1]; 2 mg/kg/dose): 116% | 30 Day Survivors/Total ([1]; 4 mg/kg/dose): 0/6 | Approx. Log10 Change in Tumor Burden at End of RX ([1]; 4 mg/kg/dose): ~2.4 log10 | Median % T/C ([1]; 4 mg/kg/dose): 139% | 30 Day Survivors/Total ([1]; 8 mg/kg/dose): 3/6 | Approx. Log10 Change in Tumor Burden at End of RX ([1]; 8 mg/kg/dose): ~-5.9 log10 | Median % T/C ([1]; 8 mg/kg/dose): 322% | 30 Day Survivors/Total ([1]; 16 mg/kg/dose): 1/6 | Median % T/C ([1]; 16 mg/kg/dose): 143% | 30 Day Survivors/Total ([2]; 1 mg/kg/dose): 0/6 | Approx. Log10 Change in Tumor Burden at End of RX ([2]; 1 mg/kg/dose): ~3.0 log10 | Median % T/C ([2]; 1 mg/kg/dose): 113% | 30 Day Survivors/Total ([2]; 2 mg/kg/dose): 0/6 | Approx. Log10 Change in Tumor Burden at End of RX ([2]; 2 mg/kg/dose): ~2.5 log10 | Median % T/C ([2]; 2 mg/kg/dose): 144% | 30 Day Survivors/Total ([2]; 4 mg/kg/dose): 2/6 | Approx. Log10 Change in Tumor Burden at End of RX ([2]; 4 mg/kg/dose): ~-1.2 log10 | Median % T/C ([2]; 4 mg/kg/dose): 209% | 30 Day Survivors/Total ([2]; 8 mg/kg/dose): 3/6 | Approx. Log10 Change in Tumor Burden at End of RX ([2]; 8 mg/kg/dose): ~-5.9 log10 | Median % T/C ([2]; 8 mg/kg/dose): 348% | 30 Day Survivors/Total ([2]; 16 mg/kg/dose): 0/6 | Median % T/C ([2]; 16 mg/kg/dose): 96%
